The source of these data is ChEMBL document CHEMBL1811859, “Second-generation sulfonamide inhibitors of D-glutamic acid-adding enzyme: activity optimisation with conformationally rigid analogues of D-glutamic acid” (Eur J Med Chem, 2011).

Assay [1] is described as follows: Inhibition of Escherichia coli MurD ligase by fluorimetric assay.
Assay [2] in a line: Inhibition of Escherichia coli MurD ligase after 10 mins using malachite green reagent by colorimetry.

With `Cc1ccc(C(=O)O)cc1NC(=O)CSc1nnc(N)s1`, in assay [1], the IC50 was determined as 105 µM.

The compound `C[C@@H]1NC(=O)[C@H](CO)NC(=O)CCCCCC[C@H](C(=O)O)CC1=O` yielded an IC50 in assay [2] of 0.7 µM.
